Experimental data as given in PMC6669322, “Small Molecule Binding to Alzheimer Risk Factor CD33 Promotes Aβ Phagocytosis” (iScience, 2019).

Tested on: differentiated THP-1 cells
Experiment: THP-1 phagocytosis assay (pHrodo E. coli BioParticles), wild-type cells
Type: cell-based, human
Conditions: 30 min pre-treatment, in words
Text: Having shown that P22 binds specifically to the sialic acid-binding site of this domain we now have a chemical tool to answer the question of whether the sialic acid-binding site is the appropriate target for small molecule ligands that might promote Aβ uptake. Siglecs preferentially recognize multivalent presentation of their ligands ([Rillahan et al., 2014], [Büll et al., 2016]), and for this reason we conjugated the biotinylated form of P22 to microparticles labeled with both FITC and streptavidin (P22 microparticles) (see Transparent Methods). More than 60% CD33-transfected BV2 cells were positive for P22 microparticles compared with only 30% cells that were only incubated with control particles (unconjugated to P22) (Figure 4A). […]
Figure 4 Effect of P22 on Phagocytosis The cells were treated with P22 conjugated to microparticles labeled with both streptavidin and fluorescein isothiocyanate (FITC), or with microparticles without P22 conjugated as control. […] (C) Quantification of phagocytic differentiated human THP-1 cells after incubation with P22 monomer, P22 conjugated microparticles, or microparticles without P22 conjugation. […]
THP-1 cells (control and CD33KO) were differentiated in growth media (RPMI 1640, 10% FCS) supplemented with 100 ng/mL PMA for 3 days. […] Differentiated cells were then lifted, counted and 75,000 cells/well were plated in a 96 well plate. […]

Cc1cc(C(=O)NC[C@@H](O)[C@@H](O)[C@@H]2O[C@@](OC[C@H]3O[C@@H](O[C@H]4[C@H](O)[C@@H](O)[C@H](OCCN)O[C@@H]4CO)[C@H](O)[C@@H](O)[C@H]3O)(C(=O)O)C[C@H](O)[C@H]2NC(=O)Cn2cc(C3CCCCC3)nn2)cc(C)c1O [P22, β-D-Glucopyranoside, 2-aminoethyl O-[N-[2-(4-cyclohexyl-1H-1,2,3-triazol-1-yl)acetyl]-9-deoxy-9-[(4-hydroxy-3,5-dimethylbenzoyl)amino]-α-neuraminosyl] (2→6)-O-β-D-galactopyranosyl-(1→4)-]
effect on phagocytosis of E. coli BioParticles: no effect
